This passage reports T/C results from PubChem BioAssay AID330 (DTP/NCI, 2004).

Where “and” joins values, the source holds several entries; their conditions need not be identical. Identical values can stand only once. Toxic doses and inconclusive results are not listed.

This test concerns P388 leukemia ip, CD2F1 mice, survival T/C. Kind of test: NCI In Vivo Anticancer Drug Screen. Data for tumor model P388 Leukemia (intraperitoneal) in CD2F1 (CDF1) mice. The settings on record: endpoint: median survival time, higher = longer survival. The essentials:
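Mice carrying the transplanted tumor received test compound or vehicle. Survival was recorded in each group, and the value is the treated-group measurement divided by that of the vehicle-treated control group.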

The mark [1] stands for this setting: dose: 25.0 mg/kg/injection, schedule: Q01DX009 (ip), vehicle: saline with Tween-80.
Setting [2] is: dose: 100.0 mg/kg/injection, schedule: Q04DX003 (ip), vehicle: Klucel (hydroxypropylcellulose) (HPC).
Where [3] appears, read: dose: 200.0 mg/kg/injection, schedule: Q04DX003 (ip), vehicle: Klucel (hydroxypropylcellulose) (HPC).
Where [4] appears, read: dose: 50.0 mg/kg/injection, schedule: Q01DX005 (ip), vehicle: saline with Tween-80.
The mark [5] stands for this setting: dose: 100.0 mg/kg/injection, schedule: Q01DX005 (ip), vehicle: saline with Tween-80.
[6] abbreviates: dose: 200.0 mg/kg/injection, schedule: Q01DX005 (ip), vehicle: saline with Tween-80.
Setting [7] is: dose: 60.0 mg/kg/injection, schedule: Q01DX005 (ip), vehicle: saline with Tween-80.
Where [8] appears, read: dose: 120.0 mg/kg/injection, schedule: Q01DX005 (ip), vehicle: saline with Tween-80.
The mark [9] stands for this setting: dose: 240.0 mg/kg/injection, schedule: Q01DX005 (ip), vehicle: saline with Tween-80.

`CCCCCCCCSC1=C(Cl)C(=O)C(OC)=C(OC)C1=O`: the T/C by setting is: (dose: 1.5 mg/kg/injection, schedule: Q04DX002 (ip), vehicle: saline with Tween-80) 101 % of control; (dose: 3.0 mg/kg/injection, schedule: Q04DX002 (ip), vehicle: saline with Tween-80) 99 % of control; (dose: 6.0 mg/kg/injection, schedule: Q04DX002 (ip), vehicle: saline with Tween-80) 99 % of control; (dose: 6.25 mg/kg/injection, schedule: Q01DX009 (ip), vehicle: saline with Tween-80) 101 % of control; (dose: 12.0 mg/kg/injection, schedule: Q04DX002 (ip), vehicle: saline with Tween-80) 108 % of control; (dose: 12.5 mg/kg/injection, schedule: Q01DX009 (ip), vehicle: saline with Tween-80) 105 % of control. The T/C (dose: 24.0 mg/kg/injection, schedule: Q04DX002 (ip), vehicle: saline with Tween-80) is 108 % of control; the T/C under setting [1] was 111 % of control; the T/C (dose: 48.0 mg/kg/injection, schedule: Q04DX002 (ip), vehicle: saline with Tween-80) is 107 % of control.
As for `O=C1C2C=CC(c3ccccc32)N1/C=C/c1ccccc1` (configuration not stated), the T/C is, setting by setting: under setting [2], 101 % of control; under setting [3], 99 % of control; (dose: 400.0 mg/kg/injection, schedule: Q04DX003 (ip), vehicle: Klucel (hydroxypropylcellulose) (HPC)) 97 % of control.
Consider `CN1CCC(=C(C#N)C#N)CC1`, for which the T/C is 120 % of control under setting [1] and 115 % of control (dose: 50.0 mg/kg/injection, schedule: Q01DX009 (ip), vehicle: saline with Tween-80).
With `O=[N+]([O-])/C=C/c1c(Cl)cccc1Cl`, the T/C runs as follows: (dose: 12.5 mg/kg/injection, schedule: Q04DX003 (ip), vehicle: saline with Tween-80) 99 % of control; (dose: 25.0 mg/kg/injection, schedule: Q04DX003 (ip), vehicle: saline with Tween-80) 100 % of control; (dose: 50.0 mg/kg/injection, schedule: Q04DX003 (ip), vehicle: saline with Tween-80) 100 % of control.
Consider `COC1=C(OC)C(=O)C(SCCCCCCC2CCCCC2)=C(C)C1=O`, for which the T/C by setting is: (dose: 60.0 mg/kg/injection, schedule: Q01DX005 (ip), vehicle: saline + Tween-80 + alcohol) 110 % of control; (dose: 120.0 mg/kg/injection, schedule: Q01DX005 (ip), vehicle: saline + Tween-80 + alcohol) 115 % of control.
Turning to `CCOC(=O)CCC(NC(=O)c1ccc(NCc2cnc3nc(N)nc(N)c3c2)cc1)C(=O)OCC` (configuration not stated), the T/C was 162 % of control (dose: 0.25 mg/kg/injection, schedule: Q01DX005 (ip), vehicle: saline with Tween-80); 158 % of control and 183 % of control (dose: 0.5 mg/kg/injection, schedule: Q01DX005 (ip), vehicle: saline with Tween-80); 183 % of control and 218 % of control (dose: 1.0 mg/kg/injection, schedule: Q01DX005 (ip), vehicle: saline with Tween-80); 104 % of control (dose: 2.0 mg/kg/injection, schedule: Q01DX005 (ip), vehicle: saline with Tween-80); 114 % of control (dose: 125.0 micrograms/kg/injection, schedule: Q01DX005 (ip), vehicle: saline with Tween-80); 151 % of control (dose: 1000.0 micrograms/kg/injection, schedule: Q01DX005 (ip), vehicle: saline with Tween-80).
On to `c1ccc2c[n+](CCCCCCCCCC[n+]3ccc4ccccc4c3)ccc2c1`, for which the T/C reads like this: (dose: 1.25 mg/kg/injection, schedule: Q01DX009 (ip), vehicle: saline) 94 % of control; (dose: 2.5 mg/kg/injection, schedule: Q01DX009 (ip), vehicle: saline) 101 % of control; (dose: 5.0 mg/kg/injection, schedule: Q01DX009 (ip), vehicle: saline) 102 % of control.
For the molecule `COc1ccccc1N/N=c1\c2nc3ccccc3nc1n(-c1ccccc1C)c(=S)n2-c1ccc(Cl)cc1`, the T/C is 88 % of control under setting [4], 94 % of control under setting [5] and 103 % of control under setting [6].
In the case of `O=c1[nH]nc(SCc2ccccc2)c2nncn12`, the T/C reads like this: under setting [4], 97 % of control; under setting [5], 92 % of control; under setting [6], 95 % of control.
In the case of `COC(=O)C1C(=O)COc2ccccc21` (configuration not stated), the T/C is, setting by setting: (dose: 100.0 mg/kg/injection, schedule: Q04DX003 (ip), vehicle: saline) 105 % of control; (dose: 200.0 mg/kg/injection, schedule: Q04DX003 (ip), vehicle: saline) 106 % of control; (dose: 400.0 mg/kg/injection, schedule: Q04DX003 (ip), vehicle: saline) 106 % of control.
Take `CC(=O)c1cc(CN(C)C)c(O)c(CN(C)C)c1`: the T/C runs as follows: (dose: 50.0 mg/kg/injection, schedule: Q01DX005 (ip), vehicle: saline) 101 % of control; (dose: 100.0 mg/kg/injection, schedule: Q01DX005 (ip), vehicle: saline) 99 % of control; (dose: 200.0 mg/kg/injection, schedule: Q01DX005 (ip), vehicle: saline) 99 % of control.
Turning to `CC(=O)Nc1ccc2c(c1)Cc1ccccc1-2`, the T/C (dose: 100.0 mg/kg/injection, schedule: Q01DX009 (ip), vehicle: saline with Tween-80) was 100 % of control; the T/C (dose: 200.0 mg/kg/injection, schedule: Q01DX009 (ip), vehicle: saline with Tween-80) was 95 % of control; the T/C (dose: 400.0 mg/kg/injection, schedule: Q01DX009 (ip), vehicle: saline with Tween-80) is 95 % of control.
Turning to `CCc1ccc(-c2cc(-c3ccc(CC)cc3)cc(-c3ccc(CC)cc3)c2)cc1`, the T/C under setting [7] was 100 % of control, the T/C under setting [5] is 94 % of control and the T/C under setting [6] was 91 % of control.
Turning to `CCCCc1ccc2nccc(N/N=C/c3ccc(OC)c4ccccc34)c2c1`, the T/C by setting is: (dose: 3.12 mg/kg/injection, schedule: Q01DX005 (ip), vehicle: Klucel (hydroxypropylcellulose) (HPC)) 100 % of control; (dose: 6.25 mg/kg/injection, schedule: Q01DX005 (ip), vehicle: Klucel (hydroxypropylcellulose) (HPC)) 100 % of control; (dose: 12.5 mg/kg/injection, schedule: Q01DX005 (ip), vehicle: Klucel (hydroxypropylcellulose) (HPC)) 93 % of control and 94 % of control; (dose: 50.0 mg/kg/injection, schedule: Q01DX005 (ip), vehicle: Klucel (hydroxypropylcellulose) (HPC)) 87 % of control.
For `O=c1ccc2[n+]([O-])c3ccc(O)cc3oc-2c1`, the T/C was 95 % of control under setting [4] and 100 % of control under setting [5].
Regarding `COc1ccc2nc(C)cc(N/N=C/c3ccc(N(CCCl)CCCl)cc3)c2c1`, the T/C (dose: 0.78 mg/kg/injection, schedule: Q01DX009 (ip), vehicle: Klucel (hydroxypropylcellulose) (HPC)) was 105 % of control; the T/C (dose: 1.56 mg/kg/injection, schedule: Q01DX009 (ip), vehicle: Klucel (hydroxypropylcellulose) (HPC)) was 103 % of control; the T/C (dose: 3.12 mg/kg/injection, schedule: Q01DX009 (ip), vehicle: Klucel (hydroxypropylcellulose) (HPC)) is 90 % of control and 98 % of control; the T/C (dose: 6.25 mg/kg/injection, schedule: Q01DX009 (ip), vehicle: Klucel (hydroxypropylcellulose) (HPC)) is 90 % of control; the T/C (dose: 25.0 mg/kg/injection, schedule: Q01DX009 (ip), vehicle: Klucel (hydroxypropylcellulose) (HPC)) was 90 % of control.
Take `O=C(CCl)NNC1=Nc2ccc(Cl)cc2SC1`: the T/C under setting [7] is 101 % of control, the T/C under setting [8] was 104 % of control and the T/C under setting [9] is 93 % of control.
With `CN=C(N)N/N=C/c1c2ccccc2cc2ccccc12`, the T/C is 115 % of control (dose: 25.0 mg/kg/injection, schedule: Q04DX002 (ip), vehicle: saline with Tween-80); 111 % of control (dose: 50.0 mg/kg/injection, schedule: Q04DX002 (ip), vehicle: saline with Tween-80); 114 % of control (dose: 100.0 mg/kg/injection, schedule: Q04DX002 (ip), vehicle: saline with Tween-80).
`ICC1CCCCC1CI` (configuration not stated): the T/C was 106 % of control under setting [4], 99 % of control under setting [5] and 104 % of control under setting [6].
On to `Cc1ccccc1NC(=O)C1C(=O)N(c2ccccc2C)C(=O)/C1=N/O` (configuration not stated), for which the T/C under setting [7] is 99 % of control, the T/C under setting [8] is 97 % of control and the T/C under setting [9] was 94 % of control.
In the case of `O=P(CCCCBr)(NCc1ccccc1)c1ccccc1` (configuration not stated), the T/C under setting [2] is 105 % of control and the T/C under setting [3] was 117 % of control.
In the case of `Cc1cc(=O)n2c(nc3ccccc32)s1`, the T/C (dose: 50.0 mg/kg/injection, schedule: Q01DX009 (ip), vehicle: Klucel (hydroxypropylcellulose) (HPC)) is 109 % of control; the T/C (dose: 100.0 mg/kg/injection, schedule: Q01DX009 (ip), vehicle: Klucel (hydroxypropylcellulose) (HPC)) was 96 % of control; the T/C (dose: 200.0 mg/kg/injection, schedule: Q01DX009 (ip), vehicle: Klucel (hydroxypropylcellulose) (HPC)) is 109 % of control.
Take `N#CC(C(=O)C(=O)NC1C2CC3CC(C2)CC1C3)c1c(Cl)cccc1Cl` (configuration not stated): the T/C is, setting by setting: under setting [7], 104 % of control; under setting [8], 106 % of control; under setting [9], 100 % of control.
